# Like-named read-outs stand apart in the source and are kept apart here.
# Tests used:
# CDK4 = target: T1, CDK4 (Homo sapiens, UniProt P11802); assay: CDK4 percentage degradation in Calu-1 cells (immunoblotting); assay type: cell-based; settings: for inhibition at 0.2 µM: read-out: CDK4 Degradation (200 nM); for inhibition at 10 µM: read-out: CDK4 Degradation (10 μM)
# T1 construct: endogenous in cells; host or cells: Calu-1
# Experimental: (§1) […] A: protein percentage degradation >=80%; B: protein percentage degradation <80%, and >=50%; C: protein percentage degradation <50%, and >=30%; D: protein percentage degradation <30%.
# (§2) Cultured cells were washed with cold PBS once and lysed in cold RIPA buffer supplemented with protease inhibitors and phosphatase inhibitors (Beyotime Biotechnology). The solutions were then incubated at 4° C. for 30 min with gentle agitation to fully lysed cells. Cell lysates were centrifuged at 13,000 rpm for 10 min at 4° C. and pellets were discarded. Total protein concentrations in the lysates were determined following BCA assays (Beyotime Biotechnology). Cell lysates were mixed with Laemmli loading buffer and heated at 99° C. for 5 min. Proteins were resolved on SDS-PAGE and visualized using Western ECL Substrate kits on a ChemiDoc MP Imaging system (Bio-Rad). Protein bands were quantitated using the Image Lab software provided by Bio-Rad.
# cyclin D1 = assay: Cyclin D1 percentage degradation in Calu-1 cells (immunoblotting); assay type: cell-based; settings: 16 hours
# Experimental: as §1, §2
# T1 sequence (P11802 2-303 limits assumed): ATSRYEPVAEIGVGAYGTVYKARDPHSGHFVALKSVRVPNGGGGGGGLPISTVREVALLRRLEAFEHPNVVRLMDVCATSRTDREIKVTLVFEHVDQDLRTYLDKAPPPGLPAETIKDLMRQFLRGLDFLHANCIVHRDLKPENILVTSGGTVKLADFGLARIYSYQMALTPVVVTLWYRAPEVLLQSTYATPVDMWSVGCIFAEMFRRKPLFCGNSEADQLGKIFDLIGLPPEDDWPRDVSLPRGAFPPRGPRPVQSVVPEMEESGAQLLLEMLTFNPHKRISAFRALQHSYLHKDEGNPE
# T1 sequence (P24385 whole entry partner): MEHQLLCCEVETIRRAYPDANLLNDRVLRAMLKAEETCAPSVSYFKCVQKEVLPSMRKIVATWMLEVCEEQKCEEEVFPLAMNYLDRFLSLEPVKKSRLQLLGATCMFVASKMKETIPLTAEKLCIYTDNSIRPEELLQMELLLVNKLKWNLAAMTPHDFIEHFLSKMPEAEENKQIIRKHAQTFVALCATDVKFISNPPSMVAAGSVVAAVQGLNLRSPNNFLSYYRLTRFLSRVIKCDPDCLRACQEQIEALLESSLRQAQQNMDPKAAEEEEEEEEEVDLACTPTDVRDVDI
# T1 sequence (Q16531 2-1140 limits assumed, further chain): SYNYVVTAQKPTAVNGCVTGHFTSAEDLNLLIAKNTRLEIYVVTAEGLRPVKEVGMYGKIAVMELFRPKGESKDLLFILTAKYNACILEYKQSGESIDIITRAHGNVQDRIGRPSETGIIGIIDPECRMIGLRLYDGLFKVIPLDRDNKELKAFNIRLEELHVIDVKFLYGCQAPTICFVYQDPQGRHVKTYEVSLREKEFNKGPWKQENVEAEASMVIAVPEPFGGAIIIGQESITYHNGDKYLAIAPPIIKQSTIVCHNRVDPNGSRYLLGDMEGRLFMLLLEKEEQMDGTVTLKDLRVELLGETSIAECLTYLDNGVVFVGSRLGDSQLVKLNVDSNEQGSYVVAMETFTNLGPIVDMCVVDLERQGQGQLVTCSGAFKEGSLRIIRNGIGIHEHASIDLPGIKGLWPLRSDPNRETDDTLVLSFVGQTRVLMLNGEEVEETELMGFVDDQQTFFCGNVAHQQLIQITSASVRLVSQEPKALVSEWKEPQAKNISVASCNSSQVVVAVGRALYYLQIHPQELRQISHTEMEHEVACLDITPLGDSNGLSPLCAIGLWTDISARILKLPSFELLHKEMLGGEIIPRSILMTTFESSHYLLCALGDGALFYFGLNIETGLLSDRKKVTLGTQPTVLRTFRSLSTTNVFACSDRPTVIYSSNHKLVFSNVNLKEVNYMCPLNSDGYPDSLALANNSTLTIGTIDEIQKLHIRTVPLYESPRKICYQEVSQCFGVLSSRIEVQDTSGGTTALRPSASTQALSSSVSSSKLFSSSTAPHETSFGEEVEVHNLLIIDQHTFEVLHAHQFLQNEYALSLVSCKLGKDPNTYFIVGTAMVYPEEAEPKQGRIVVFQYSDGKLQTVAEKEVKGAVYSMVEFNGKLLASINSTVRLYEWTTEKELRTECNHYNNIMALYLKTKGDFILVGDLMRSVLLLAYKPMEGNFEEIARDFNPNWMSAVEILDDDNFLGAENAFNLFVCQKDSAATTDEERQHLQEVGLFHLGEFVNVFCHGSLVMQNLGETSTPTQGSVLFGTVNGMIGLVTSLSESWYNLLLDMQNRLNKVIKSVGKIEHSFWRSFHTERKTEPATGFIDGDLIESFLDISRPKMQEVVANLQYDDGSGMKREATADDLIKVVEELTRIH
"inhibition at 0.2 µM (CDK4; Calu-1 cells, 200 nM, 16 hours)","inhibition at 10 µM (CDK4; Calu-1 cells, 16 hours)",SMILES,CyclinD1 Degradation (200 nM) (cyclin D1),CyclinD1 Degradation (10 μM) (cyclin D1),"inhibition at 0.2 µM (CDK4; Calu-1, 16 h)"
< 30%,,"CC(=O)c1c(C)c2cnc(Nc3ccc(N4CCN(CC(=O)NCCOCCNc5cccc(C(=O)Nc6nc(C)c(C)s6)c5C)CC4)cn3)nc2n(C2CCCC2)c1=O [CPD-103, 3-((2-(2-(2-(4-(6-((6-Acetyl-8-cyclopentyl-5-methyl-7-oxo-7,8-dihydropyrido[2,3-d]pyrimidin-2-yl)amino)pyridin-3-yl)piperazin-1-yl)acetamido)ethoxy)ethyl)amino)-N-(4,5-dimethylthiazol-2-yl)-2-methylbenzamide]",D (protein percentage degradation <30%),,
30 to 50%,,"COc1cnc(NC(=O)c2ccc(NCCOCCOCCOCCOCCOCCNC(=O)CN3CCN(c4ccc(Nc5ncc6c(C)c(C(C)=O)c(=O)n(C7CCCC7)c6n5)nc4)CC3)cc2C)s1 [CPD-030, 4-((1-(4-(6-((6-Acetyl-8-cyclopentyl-5-methyl-7-oxo-7,8-dihydropyrido[2,3-d]pyrimidin-2-yl)amino)pyridin-3-yl)piperazin-1-yl)-2-oxo-6,9,12,15,18-pentaoxa-3-azaicosan-20-yl)amino)-N-(5-methoxythiazol-2-yl)-2-methylbenzamide]","B (protein percentage degradation <80%, and >=50%)",,
50 to 80%,,"CC(=O)c1c(C)c2cnc(Nc3ccc(N4CCN(CC(=O)NCCOCCOCCC(=O)Nc5ccccc5C(=O)Nc5ccc(C)cn5)CC4)cn3)nc2n(C2CCCC2)c1=O [CPD-061, 2-(3-(2-(2-(2-(4-(6-((6-Acetyl-8-cyclopentyl-5-methyl-7-oxo-7,8-dihydropyrido[2,3-d]pyrimidin-2-yl)amino)pyridin-3-yl)piperazin-1-yl)acetamido)ethoxy)ethoxy)propanamido)-N-(5-methylpyridin-2-yl)benzamide]",A (protein percentage degradation >=80%),,
,30 to 50%,"Cc1nc(NC(=O)c2ccccc2NC(=O)CCCCNC(=O)CN2CCN(c3ccc(Nc4ncc5cc(C(=O)N(C)C)n(C6CCCC6)c5n4)nc3)CC2)sc1C [CPD-289, 7-Cyclopentyl-2-((5-(4-(2-((5-((2-((4,5-dimethylthiazol-2-yl)carbamoyl)phenyl)amino)-5-oxopentyl)amino)-2-oxoethyl)piperazin-1-yl)pyridin-2-yl)amino)-N,N-dimethyl-7H-pyrrolo[2,3-d]pyrimidine-6-carboxamide]",,A (protein percentage degradation >= 80%),
,< 30%,"Cc1nc(NC(=O)c2ccccc2NC(=O)CCOCCOCCOCCOCCOCCOCCNC(=O)CN2CCN(c3ccc(Nc4ncc(F)c(-c5cc(F)c6nc(C)n(C(C)C)c6c5)n4)nc3)CC2)sc1C [CPD-313, N-(4,5-Dimethylthiazol-2-yl)-2-(1-(4-(6-((5-fluoro-4-(4-fluoro-1-isopropyl-2-methyl-1H-benzo[d]imidazol-6-yl)pyrimidin-2-yl)amino)pyridin-3-yl)piperazin-1-yl)-2-oxo-6,9,12,15,18,21-hexaoxa-3-azatetracosan-24-amido)benzamide]",,A (protein percentage degradation >= 80%),
50 to 80%,,"CC(=O)c1c(C)c2cnc(Nc3ccc(N4CCN(CC(=O)NCCOCCOCCC(=O)Nc5ccccc5C(=O)Nc5nc(C6CCNCC6)c(C)s5)CC4)cn3)nc2n(C2CCCC2)c1=O [CPD-072, 2-(3-(2-(2-(2-(4-(6-((6-Acetyl-8-cyclopentyl-5-methyl-7-oxo-7,8-dihydropyrido[2,3-d]pyrimidin-2-yl)amino)pyridin-3-yl)piperazin-1-yl)acetamido)ethoxy)ethoxy)propanamido)-N-(5-methyl-4-(piperidin-4-yl)thiazol-2-yl)benzamide]",D (protein percentage degradation <30%),,
,,"CC(=O)c1c(C)c2cnc(Nc3ccc(N4CCN(C(=O)CCOCCOCCOCCC(=O)Nc5ccccc5C(=O)Nc5nc(C)c(C)s5)CC4)cn3)nc2n(C2CCCC2)c1=O [CPD-357, 2-(3-(2-(2-(3-(4-(6-((6-Acetyl-8-cyclopentyl-5-methyl-7-oxo-7,8-dihydropyrido[2,3-d]pyrimidin-2-yl)amino)pyridin-3-yl)piperazin-1-yl)-3-oxopropoxy)ethoxy)ethoxy)propanamido)-N-(4,5-dimethylthiazol-2-yl)benzamide]",A (protein percentage degradation >=80%),,50 to 80%
,30 to 50%,"Cc1nc(NC(=O)c2ccccc2NC(=O)CCOCCOCCOCCOCCOCCOCCNC(=O)CN2CCN(c3ccc(Nc4ncc5cc(C(=O)N(C)C)n(C6CCCC6)c5n4)nc3)CC2)sc1C [CPD-299, 7-Cyclopentyl-2-((5-(4-(24-((2-((4,5-dimethylthiazol-2-yl)carbamoyl)phenyl)amino)-2,24-dioxo-6,9,12,15,18,21-hexaoxa-3-azatetracosyl)piperazin-1-yl)pyridin-2-yl)amino)-N,N-dimethyl-7H-pyrrolo[2,3-d]pyrimidine-6-carboxamide]",,"B (protein percentage degradation < 80%, and >= 50%)",
50 to 80%,,"CC(=O)c1c(C)c2cnc(Nc3ccc(N4CCN(CC(=O)NCCOCCOCCC(=O)Nc5cc(Cl)ccc5C(=O)Nc5nc(C)c(C)s5)CC4)cn3)nc2n(C2CCCC2)c1=O [CPD-140, 2-(3-(2-(2-(2-(4-(6-((6-Acetyl-8-cyclopentyl-5-methyl-7-oxo-7,8-dihydropyrido[2,3-d]pyrimidin-2-yl)amino)pyridin-3-yl)piperazin-1-yl)acetamido)ethoxy)ethoxy)propanamido)-4-chloro-N-(4,5-dimethylthiazol-2-yl)benzamide]",A (protein percentage degradation >=80%),,
< 30%,,"CC(=O)c1c(C)c2cnc(Nc3ccc(N4CCN(CC(=O)NCCCCCNC(=O)CNc5ccc(C(=O)Nc6ncc(C)s6)c(C)c5)CC4)cn3)nc2n(C2CCCC2)c1=O [CPD-015, 4-((2-((5-(2-(4-(6-((6-Acetyl-8-cyclopentyl-5-methyl-7-oxo-7,8-dihydropyrido[2,3-d]pyrimidin-2-yl)amino)pyridin-3-yl)piperazin-1-yl)acetamido)pentyl)amino)-2-oxoethyl)amino)-2-methyl-N-(5-methylthiazol-2-yl)benzamide]",D (protein percentage degradation <30%),,
,30 to 50%,"Cc1nc(NC(=O)c2ccccc2NC(=O)CCCCCCNC(=O)CN2CCN(c3ccc(Nc4ncc5cc(C(=O)N(C)C)n(C6CCCC6)c5n4)nc3)CC2)sc1C [CPD-291, 7-Cyclopentyl-2-((5-(4-(2-((7-((2-((4,5-dimethylthiazol-2-yl)carbamoyl)phenyl)amino)-7-oxoheptyl)amino)-2-oxoethyl)piperazin-1-yl)pyridin-2-yl)amino)-N,N-dimethyl-7H-pyrrolo[2,3-d]pyrimidine-6-carboxamide]",,"B (protein percentage degradation < 80%, and >= 50%)",
,,"CC(=O)c1c(C)c2cnc(Nc3ccc(N4CCN(C(=O)CCCC(=O)Nc5ccccc5C(=O)Nc5nc(C)c(C)s5)CC4)cn3)nc2n(C2CCCC2)c1=O [CPD-159, 2-(5-(4-(6-((6-Acetyl-8-cyclopentyl-5-methyl-7-oxo-7,8-dihydropyrido[2,3-d]pyrimidin-2-yl)amino)pyridin-3-yl)piperazin-1-yl)-5-oxopentanamido)-N-(4,5-dimethylthiazol-2-yl)benzamide]",D (protein percentage degradation <30%),,30 to 50%
,< 30%,"Cc1nc(NC(=O)c2ccccc2NC(=O)CNC(=O)CN2CCN(Cc3ccc(Nc4ncc(F)c(-c5cc(F)c6nc(C)n(C(C)C)c6c5)n4)nc3)CC2)sc1C [CPD-272, N-(4,5-Dimethylthiazol-2-yl)-2-(2-(2-(4-((6-((5-fluoro-4-(4-fluoro-1-isopropyl-2-methyl-1H-benzo[d]imidazol-6-yl)pyrimidin-2-yl)amino)pyridin-3-yl)methyl)piperazin-1-yl)acetamido)acetamido)benzamide]",,D (protein percentage degradation < 30%),
50 to 80%,,"CC(=O)c1c(C)c2cnc(Nc3ccc(N4CCN(CC(=O)NCCCCCNc5cc(C#N)ccc5C(=O)Nc5ccc(N(C)C)nn5)CC4)cn3)nc2n(C2CCCC2)c1=O [CPD-376, 2-((5-(2-(4-(6-((6-Acetyl-8-cyclopentyl-5-methyl-7-oxo-7,8-dihydropyrido[2,3-d]pyrimidin-2-yl)amino)pyridin-3-yl)piperazin-1-yl)acetamido)pentyl)amino)-4-cyano-N-(6-(dimethylamino)pyridazin-3-yl)benzamide]",A (protein percentage degradation >=80%),,
50 to 80%,,"CNc1ccc(C(=O)Nc2ccc(C)c(C3CC3)n2)c(NCCCCCNC(=O)CN2CCN(c3ccc(Nc4ncc5c(C)c(C(C)=O)c(=O)n(C6CCCC6)c5n4)nc3)CC2)c1 [CPD-371, 2-((5-(2-(4-(6-((6-Acetyl-8-cyclopentyl-5-methyl-7-oxo-7,8-dihydropyrido[2,3-d]pyrimidin-2-yl)amino)pyridin-3-yl)piperazin-1-yl)acetamido)pentyl)amino)-N-(6-cyclopropyl-5-methylpyridin-2-yl)-4-(methylamino)benzamide]",A (protein percentage degradation >=80%),,
